In PubChem BioAssay (NCI) one finds GI50 and TGI data, which are given here for 7 compounds.

Experiment in all cases: NCI anticancer screen, dose series, 48 h
Assay [1] has as its system HCC-2998 colon.
Assay [2] concerns SNB-19 CNS.
The test system of assay [3] is 786-0 renal.
The subject of assay [4] is SK-MEL-28 melanoma.
The subject of assay [5] is UACC-257 melanoma.
Assay [6] relates to UACC-62 melanoma.
The subject of assay [7] is OVCAR-8 ovarian.
For assay [8], the system named is SN12C renal.
The subject of assay [9] is NCI-H23 lung.
Assay [10] relates to MDA-MB-231 breast.

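Each compound was tested at five concentrations against cells in 96-well plates for 48 hours. The concentration for 50% growth inhibition is given as GI50. TGI: total growth inhibition.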

In the case of `CCC(O)c1ccc(Br)cc1NC(=O)c1cccc(Cl)c1` (stereo not given), the GI50 in assay [1] was 20.5 µM; in assay [2] it was 37.4 µM; in assay [3] it was 33.1 µM; in assay [4], 23.9 µM; in assay [5], 18.4 µM; in assay [6], 12.5 µM. In addition, the GI50 in [7] was 23.7 µM; in assay [8], 24.4 µM; in assay [9], 22.4 µM; in [10], 18.8 µM. Moreover, the TGI in [1] was 45.4 µM; in [2] it was above 100 µM; in assay [3], above 100 µM; in assay [4], 64.8 µM; in [5], 35.1 µM; in assay [6], above 100 µM. Moreover, the TGI in [7] is 77.9 µM; in [8] it was above 100 µM; in [9], 86.6 µM; in assay [10] it was above 100 µM.

Consider `COc1cc(OC)c(C(=O)/C=C/c2cc3c(cc2OCc2ccccc2)OC(C)(C)CC3)cc1CC=C(C)C`, for which the GI50 is 8.91 µM in [1]; 6.22 µM in [2]; 9.33 µM in assay [3]; 4.07 µM in assay [4]; 13.1 µM in [5]; 3.8 µM in [6]. Also, the GI50 was 4.14 µM in assay [7], 7.36 µM in [8], 6.77 µM in assay [9] and 10.1 µM in assay [10]. Besides, the TGI in assay [1] was above 25 µM; in assay [2], 17.3 µM; in [3] it was above 25 µM; in assay [4] it was 9.23 µM; in assay [5] it was above 25 µM; in [6] it was 10.5 µM. For the same compound, the TGI in assay [7], in assay [8], in assay [9] and in [10] was above 25 µM each time.

Take `CCc1ccc(NC(=O)NC(=O)c2ccccc2[N+](=O)[O-])cc1Oc1ncc(Cl)cn1`: the TGI in assay [1] is 0.0695 µM; in assay [2], above 100 µM; in assay [3], 1.01 µM; in assay [4] it was above 4.64 µM; in assay [5] it was above 100 µM; in assay [6] it was above 100 µM. In addition, the TGI in assay [7] is above 100 µM; in assay [8], above 100 µM; in [9] it was above 100 µM; in [10], 52.3 µM.

Take `CN(C)CCNc1ccc(CO)c2sc3ccc(O)cc3c(=O)c12`: the TGI in [1] came to 7.4 µM; in assay [2], 11.9 µM; in [3], 9.37 µM; in assay [4], 19.1 µM; in [5], 15.7 µM; in assay [6] it was 7.75 µM. For the same compound, the TGI in [7] is 8.89 µM; in assay [8], 15.4 µM; in assay [9] it was 4.14 µM; in assay [10] it was 4.24 µM.

For the compound `Cc1nc(N)nc2c1CCC(O)S2` (stereo not given), the GI50 was 9.46 µM in assay [1]; 6.43 µM in [2]; 10.7 µM in assay [3]; 6.11 µM in assay [4]; 12.9 µM in assay [5]; 11.3 µM in assay [6]. The GI50 in [7] was 3.73 µM; in assay [8] it was 7.81 µM; in [9], 3.66 µM; in [10] it was 10.2 µM. Moreover, the TGI was 22.2 µM in assay [1]; 41.1 µM in [2]; 24.5 µM in [3]; 28.9 µM in assay [4]; 47.1 µM in assay [5]; 25.8 µM in assay [6]. Moreover, the TGI was 24 µM in assay [7], 56.2 µM in [8], 17.2 µM in [9] and 32.8 µM in assay [10].

On to `CCCCCCCCCCCCCCCCCC1=NC(C)(C)CN1CC(C)O` (stereo not given), for which the GI50 in assay [1] is 6.01 µM; in [2], 7.08 µM; in assay [3], 14.9 µM; in assay [4] it was 17.1 µM; in assay [5], 22.4 µM; in assay [6], 3.44 µM. For the same compound, the GI50 is 3.99 µM in [7], 10.5 µM in assay [8], 12.7 µM in [9] and 2.02 µM in assay [10]. In addition, the TGI was 18.9 µM in assay [1]; 31.5 µM in [2]; 31.7 µM in assay [3]; 33.5 µM in assay [4]; 40.6 µM in assay [5]; 12.5 µM in assay [6]. Also, the TGI in assay [7] stood at 14.5 µM; in [8] it was 24.4 µM; in [9], 27.1 µM; in [10] it was 4.37 µM.

Consider `COc1ccc(/C=C/C(=O)/C=C/c2cc3ccccc3[nH]c2=O)cc1`, for which the GI50 is 2.19 µM in assay [1]; 10.6 µM in assay [2]; 1.87 µM in assay [3]; 13.9 µM in [4]; 10.8 µM in assay [5]; 2.43 µM in [6]. The GI50 was 3.55 µM in [7], 2.41 µM in [8], 4.31 µM in assay [9] and 2.87 µM in [10]. Further, the TGI came out at 4.13 µM in assay [1]; 29 µM in assay [2]; 3.51 µM in assay [3]; 34.7 µM in assay [4]; 25.3 µM in [5]; 9.41 µM in assay [6]. Also, the TGI in [7] amounted to 22.4 µM; in [8], 6.73 µM; in [9] it was 19.8 µM; in [10], 10.9 µM.
